1 molecule from patent publication US20230398243A1, “THERAPEUTIC, RADIOLABELED NANOPARTICLES AND METHODS OF USE THEREOF” (The General Hospital Corporation, priority 2020, published 2023) can be followed below.

In this test the test system is MDA-MB-231-luc-D3H2LN cell line. The experiment in a line: tumor cell apoptosis, proliferation, invasion, migration and cell cycle. The test is classed as cell-based, human. As to conditions: low-dose doxorubicin. The text has this:
21.6±0.5-nm dextran coated magnetic nanoparticles were conjugated to 8±0.7 LNA antagomirs targeting miRNA-10b, (Exiqon, Woburn, MA) (FIG. 1A). The MN-anti-miR10b therapeutic was functional in the human lymph-node metastatic MDA-MB-231-luc-D3H2LN cell line (Perkin Elmer, Hopkinton MA). […] In order to assess the therapeutic potential of this methodology, the effect of miR-10b inhibition on tumor cell apoptosis, proliferation, invasion and migration was investigated.
It was also hypothesized that by co-administering a low dose of a cytotoxic chemotherapeutic (e.g., doxorubicin), the effectiveness of the therapeutic could be amplified, leading not only to inhibition of tumor growth, but regression and, possibly, elimination of metastasis. […] Further proof for this hypothesis came from experiments in which we attempted to generate a miR-10b knock-out subline derived from the MDA-MB-231-luc-D3H2LN cell line (FIG. 3A). We observed that within 24 h of transfection with the knock-out vector set (TALEN5 L+R), the cells acquired a spindle-shaped conformation and began to detach. By 72 h of transfection, there were no viable cells (FIG. 3B).

Consider `COc1cccc2c1C(=O)c1c(O)c3c(c(O)c1C2=O)C[C@@](O)(C(=O)CO)C[C@@H]3O[C@H]1C[C@H](N)[C@H](O)[C@H](C)O1` [doxorubicin], for which the “effect on the cell cycle (flow cytometry)” value is “induced polyploidy and G2/M arrest”.
